Assay results as given in the supplement of paper PMC10307832.

Columns and labels:
Assay in all cases: relative viability (nuclei count vs DMSO), 5 days (fraction); higher = more cells survive
[1] = compound: CCN(CCO)CCCC(C)Nc1ccnc2cc(Cl)ccc12 [Hydroxychloroquine] + CC(C)C[C@H](NC(=O)[C@H](Cc1ccccc1)NC(=O)c1cnccn1)B(O)O [Bortezomib] (partner 0.002 µM)
Summary of the method: (§1)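 A single step with final 0.05% Triton X-100, 1% formaldehyde and 1 ug/ml Hoechst fixed the cells and stained nuclei 5 days after treatment. Lung cancer cell lines in 1536-well plates had been treated by pin tool the day after seeding with one drug alone or a fixed anchor-drug dose plus five library-drug doses (not always all listed) in √10 steps, and nuclei were counted on 4× images. Relative viability is the ratio of nuclei in treated wells to nuclei in vehicle wells, taken as the median of duplicate plates.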

[2] = compound: CCN(CCO)CCCC(C)Nc1ccnc2cc(Cl)ccc12 [Hydroxychloroquine] + Nc1nc2[nH]cc(CCc3ccc(C(=O)N[C@@H](CCC(=O)O)C(=O)O)cc3)c2c(=O)[nH]1 [Pemetrexed] (partner 0.2 µM)
Summary of the method: as §1

[3] = compound: CCN(CCO)CCCC(C)Nc1ccnc2cc(Cl)ccc12 [Hydroxychloroquine] + O=C(c1cc(Cc2n[nH]c(=O)c3ccccc23)ccc1F)N1CCN(C(=O)C2CC2)CC1 [Olaparib] (partner 8 µM)
Summary of the method: as §1

[4] = compound: CCN(CCO)CCCC(C)Nc1ccnc2cc(Cl)ccc12 [Hydroxychloroquine] + Cc1nc(NC(=O)N2CCC[C@H]2C(N)=O)sc1-c1ccnc(C(C)(C)C(F)(F)F)c1 [Alpelisib] (partner 2 µM)
Summary of the method: as §1

| Cell Line | relative viability ([1]; first compound 0.5 µM) | relative viability ([1]; first compound 1.581 µM) | relative viability ([1]; first compound 5 µM) | relative viability ([1]; first compound 15.81 µM) | relative viability ([1]; first compound 50 µM) | relative viability ([2]; first compound 0.5 µM) | relative viability ([2]; first compound 1.581 µM) | relative viability ([2]; first compound 5 µM) | relative viability ([2]; first compound 15.81 µM) | relative viability ([2]; first compound 50 µM) | relative viability ([3]; first compound 0.5 µM) | relative viability ([3]; first compound 1.581 µM) | relative viability ([3]; first compound 5 µM) | relative viability ([3]; first compound 15.81 µM) | relative viability ([3]; first compound 50 µM) | relative viability ([4]; first compound 0.5 µM) | relative viability ([4]; first compound 1.581 µM) | relative viability ([4]; first compound 5 µM) | relative viability ([4]; first compound 15.81 µM) | relative viability ([4]; first compound 50 µM) |
| --- | --- | --- | --- | --- | --- | --- | --- | --- | --- | --- | --- | --- | --- | --- | --- | --- | --- | --- | --- | --- |
| NCI-H2085 | 0.987 | 0.94 | 1.24 | 1.07 | 1.1 | 0.885 | 0.773 | 0.838 | 0.809 | 0.9 | 0.74 | 0.769 | 0.817 | 0.739 | 0.774 | 0.91 | 0.998 | 0.973 | 0.914 | 0.917 |
| NCI-H2087 | 0.829 | 0.959 | 0.835 | 0.869 | 1.1 | 0.634 | 0.669 | 0.7 | 0.709 | 0.771 | 0.596 | 0.709 | 0.683 | 0.756 | 0.511 | 1.03 | 1.06 | 0.87 | 1.08 | 1.02 |
| NCI-H2126 | 1.11 | 1.07 | 1.09 | 1.1 | 1.18 | 0.709 | 0.636 | 0.666 | 0.653 | 0.716 | 0.98 | 0.921 | 0.9 | 0.975 | 0.926 | 0.727 | 0.738 | 0.73 | 0.775 | 0.794 |
| NCI-H2228 | 1 | 1.18 | 1 | 1.05 | 1.29 | 0.329 | 0.352 | 0.348 | 0.311 | 0.331 | 0.716 | 0.75 | 0.575 | 0.653 | 0.623 | 0.705 | 0.546 | 0.682 | 0.549 | 0.735 |
| NCI-H2347 | 0.979 | 0.911 | 0.931 | – | 0.878 | 0.481 | 0.401 | 0.444 | 0.413 | 0.452 | 0.594 | 0.563 | 0.588 | 0.608 | 0.541 | 1.06 | 0.904 | 1.02 | 1.11 | 0.956 |
| NCI-H2405 | 1.03 | 0.918 | 1.02 | 0.989 | 1.04 | 1.07 | 1.05 | 0.984 | 0.515 | 1.03 | 0.934 | 0.87 | 0.836 | 0.886 | 0.861 | 0.961 | 0.592 | 0.879 | 0.856 | 0.845 |
| NCI-H3122 | 0.981 | 1.01 | 1.05 | 1.05 | 1.07 | 0.189 | 0.205 | 0.359 | 0.188 | 0.199 | 0.623 | 0.646 | 0.676 | 0.664 | 0.729 | 0.798 | 0.736 | 0.822 | 0.779 | 0.8 |
| PC-3 [JPC-3] | 0.787 | 0.841 | 0.812 | 0.694 | 0.94 | 1.09 | 1.2 | 1.01 | 0.323 | 0.842 | 1.23 | 1.14 | 1.09 | 1.2 | 1.16 | 1.01 | 1.04 | 1.06 | 1 | 1.02 |
| PC-14 | 0.783 | 0.959 | 0.925 | 0.788 | 0.852 | 0.149 | 0.145 | 0.118 | 0.142 | 0.129 | 0.31 | 0.28 | 0.276 | 0.25 | 0.285 | 0.782 | 0.858 | 0.951 | 0.892 | 1.01 |
| RERF-LC-KJ | 1.15 | 1.1 | 0.984 | 1.15 | 1.08 | 0.448 | 0.466 | 0.457 | 0.489 | 0.467 | 0.917 | 0.948 | 0.896 | 0.846 | 0.933 | 0.778 | 0.697 | 0.732 | 0.879 | 0.852 |
| SK-LU-1 | 1.27 | 1.04 | 1.29 | 1.18 | 1.37 | 1.02 | 0.876 | 0.953 | 1.11 | 1.03 | 0.45 | 0.425 | 0.491 | 0.426 | 0.445 | 0.964 | 0.852 | 1.05 | 1.06 | 1.03 |
| SW 1573 | 0.966 | 1.17 | 0.931 | 0.947 | 1.1 | 0.892 | 0.686 | 0.794 | 0.86 | 0.758 | 0.504 | 0.484 | 0.432 | 0.472 | 0.458 | 0.703 | 0.767 | 0.893 | 0.796 | 0.826 |
| UMC-11 | 0.626 | 0.822 | 0.863 | 0.657 | 1.15 | 0.751 | 0.751 | 0.826 | 0.976 | 0.825 | 0.342 | 0.325 | 0.365 | 0.366 | 0.353 | 0.841 | 0.956 | 0.962 | 1.06 | 1.2 |
